Tested on: keratinocyte differentiation markers KRT1, KRT10, Loricrin, and Involucrin
Assay: inhibition of HBEGF-induced differentiation of HaCaT keratinocytes (RT-PCR)
Type: cell-based
Conditions: with 2.5 ng/mL recombinant human HBEGF protein, 24 hours
Procedure: Human HaCaT keratinocytes were cultured in DMEM culture medium containing 10% fetal bovine serum, 100 U/mL penicillin, and 100 µg/mL streptomycin. The cells were seeded into a 96-well plate at a density of […] and placed in an incubator containing 5% carbon dioxide for culture at 37°C for 24 hours. An equal volume of DMSO was added into control well 1, a 2.5 ng/mL recombinant human HBEGF protein (Abcam, ab205523) was added into control well 2, and a 2.5 ng/mL recombinant human HBEGF protein and corresponding concentrations of test compounds were added into sample wells. The cells were continuously cultured for 24 hours, washed with PBS, and then collected by high-speed centrifugation. Total RNA was extracted using Trizol reagent (Sigma Aldrich). 1 µg of RNA was reverse-transcribed into cDNA using a cDNA reverse transcription kit (Transgene Biotech, AT311-03). 1.25 µL of a primer (with a primer sequence shown in Table 2), 10 µL of an iTag Universal SYBR Green supermix (Bio-Rad, 172-5125), and an appropriate amount of DEPC ultrapure water were added to formulate 20 µL of a reaction solution to perform an RT-PCR reaction. Upon completion of the reaction, the reaction solution was subjected to agarose gel electrophoresis to determine the mRNA expression level of keratinocyte differentiation markers KRT1, KRT10, Loricrin, and Involucrin. […]

With NC(=O)[C@H]1CCCc2c1[nH]c1ccc(Cl)cc21 [Compound of formula (I), (S)-6-chloro-2,3,4,9-tetrahydro-1H-carbazole-carboxamide] the “mRNA expression level of the HaCaT differentiation markers KRT1, KRT10, Loricrin, and Involucrin” value was “significantly inhibited”.

Reference: patent EP4782431A1 (Suzhou Merna Therapeutics Co. Ltd, priority 2023, dated 2025)
